Here are results for 3 compounds from ChEMBL document CHEMBL1201862, “PubChem BioAssay data set” (2004).

What all share (assay type): functional
Experiment [1] has as its target T1, Apoptotic protease-activating factor 1 (Homo sapiens, UniProt O14727).
T1 sequence (O14727 whole entry): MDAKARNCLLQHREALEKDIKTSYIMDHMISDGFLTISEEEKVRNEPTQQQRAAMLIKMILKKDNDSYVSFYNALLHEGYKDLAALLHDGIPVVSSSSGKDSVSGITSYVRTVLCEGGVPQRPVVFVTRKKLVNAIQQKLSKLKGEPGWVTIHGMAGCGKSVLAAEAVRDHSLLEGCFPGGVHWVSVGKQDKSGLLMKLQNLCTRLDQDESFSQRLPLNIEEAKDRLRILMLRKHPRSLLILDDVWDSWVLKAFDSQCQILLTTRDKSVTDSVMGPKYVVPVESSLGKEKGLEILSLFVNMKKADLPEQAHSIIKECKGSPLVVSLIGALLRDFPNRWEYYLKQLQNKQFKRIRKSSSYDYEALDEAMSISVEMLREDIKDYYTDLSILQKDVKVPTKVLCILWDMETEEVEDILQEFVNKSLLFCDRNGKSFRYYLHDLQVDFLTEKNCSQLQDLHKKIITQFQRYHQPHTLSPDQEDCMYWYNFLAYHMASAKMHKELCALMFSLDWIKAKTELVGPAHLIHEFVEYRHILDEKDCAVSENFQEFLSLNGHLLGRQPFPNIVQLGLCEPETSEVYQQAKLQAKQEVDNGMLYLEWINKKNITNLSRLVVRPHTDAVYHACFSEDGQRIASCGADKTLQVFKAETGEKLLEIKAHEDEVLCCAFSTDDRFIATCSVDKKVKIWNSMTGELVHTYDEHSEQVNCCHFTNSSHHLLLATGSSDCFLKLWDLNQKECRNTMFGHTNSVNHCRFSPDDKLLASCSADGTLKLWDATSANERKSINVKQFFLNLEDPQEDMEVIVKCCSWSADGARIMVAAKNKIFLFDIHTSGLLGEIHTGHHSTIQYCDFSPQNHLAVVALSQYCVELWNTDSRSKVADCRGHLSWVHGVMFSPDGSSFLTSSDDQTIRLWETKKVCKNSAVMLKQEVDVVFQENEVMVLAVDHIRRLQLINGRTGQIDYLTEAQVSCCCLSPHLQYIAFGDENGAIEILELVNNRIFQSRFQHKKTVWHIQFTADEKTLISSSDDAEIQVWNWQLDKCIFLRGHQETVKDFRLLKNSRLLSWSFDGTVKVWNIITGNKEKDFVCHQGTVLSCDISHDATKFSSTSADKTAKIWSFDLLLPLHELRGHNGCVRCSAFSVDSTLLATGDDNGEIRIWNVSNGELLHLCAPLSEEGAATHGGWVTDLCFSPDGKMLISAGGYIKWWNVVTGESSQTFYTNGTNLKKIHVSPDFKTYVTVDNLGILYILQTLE

Experiment [2] addresses T2, Sentrin-specific protease 8 (Homo sapiens, UniProt Q96LD8).
T2 sequence (Q96LD8 whole entry): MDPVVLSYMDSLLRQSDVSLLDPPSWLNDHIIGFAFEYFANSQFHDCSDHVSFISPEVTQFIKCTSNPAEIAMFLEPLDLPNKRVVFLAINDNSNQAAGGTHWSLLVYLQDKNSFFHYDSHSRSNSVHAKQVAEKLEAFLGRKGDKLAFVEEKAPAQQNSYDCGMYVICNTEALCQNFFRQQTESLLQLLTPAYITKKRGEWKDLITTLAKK
The experiment can be described thus: inhibition of human SENP8 cleavage activity – biochemical, luminescence, SAR follow-up (AID 504501).

Another experiment addresses SUMO-activating enzyme (Homo sapiens, UniProt Q9UBT2). The experiment can be described thus: blockers of UBC9-mediated SUMO conjugation – biochemical, AlphaScreen, SUMOylation inhibitor project, confirmation (AID 2018). Background: Alpha assays give light when donor and acceptor beads are brought close together.
Experiment [3] has as its target T2, Sentrin-specific protease 8.
In another experiment the target is T3, Caspase-3 (Homo sapiens, UniProt P42574).
T3 sequence (P42574 whole entry): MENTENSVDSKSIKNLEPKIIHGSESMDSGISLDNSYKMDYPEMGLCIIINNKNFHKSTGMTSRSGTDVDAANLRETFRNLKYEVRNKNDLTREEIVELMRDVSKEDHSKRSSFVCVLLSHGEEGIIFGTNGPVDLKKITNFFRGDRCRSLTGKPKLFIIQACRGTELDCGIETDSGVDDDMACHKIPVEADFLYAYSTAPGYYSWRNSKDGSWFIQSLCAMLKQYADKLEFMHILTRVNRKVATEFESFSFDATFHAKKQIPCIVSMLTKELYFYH
The experiment can be described thus: SAR Analysis of small molecule inhibitors of Sentrin-specific proteases (SENPs) using a Caspase-3 Selectivity assay. [Related pubchem assays (depositor defined):AID2540, AID2599, AID434973, AID489001].

For experiment [4], the target named is Macrophage-stimulating protein receptor (Homo sapiens, UniProt Q04912). The experiment can be described thus: Navigating the Kinome. Panel member name: MST1R.
The target in experiment [5] is High affinity nerve growth factor receptor (Homo sapiens, UniProt P04629).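 Further: NTRK1 tested as one member of a kinome-wide profiling panel.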
For experiment [6], the target named is Tyrosine-protein kinase receptor TYRO3 (Homo sapiens, UniProt Q06418).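 Further: TYRO3 value obtained as one member of a kinome-wide profiling panel.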
For experiment [7], the target named is Leukocyte tyrosine kinase receptor (Homo sapiens, UniProt P29376). The experiment can be described thus: Navigating the Kinome. Panel member name: LTK.
Another experiment has as its target Activin receptor type-1 (Homo sapiens, UniProt Q04771). The experiment can be described thus: Navigating the Kinome. Panel member name: ACVR1.
Experiment [8] deals with Vascular endothelial growth factor receptor 1 (Homo sapiens, UniProt P17948).
Experiment [9] concerns the target Dual specificity protein kinase CLK4 (Homo sapiens, UniProt Q9HAZ1).
Experiment [10] concerns the target Tyrosine-protein kinase JAK3 (Homo sapiens, UniProt P52333).
For another experiment, the target named is LIM domain kinase 1 (Homo sapiens, UniProt P53667). The experiment can be described thus: Navigating the Kinome. Panel member name: LIMK1.
Experiment [11] deals with Macrophage colony-stimulating factor 1 receptor (Homo sapiens, UniProt P07333).
Experiment [12] deals with Serine/threonine-protein kinase Chk1 (Homo sapiens, UniProt O14757).
In experiment [13] the target is Cyclin-dependent kinase 9 (Homo sapiens, UniProt P50750).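 Further: value from the CDK9 entry of a kinome-spanning kinase panel.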
Experiment [14] concerns the target Tyrosine-protein kinase BTK (Homo sapiens, UniProt Q06187).
In a further experiment the target is Aurora kinase B (Homo sapiens, UniProt Q96GD4).
A further experiment deals with HeLa. The experiment can be described thus: viability loss in HeLa cells – cell-based, 24 h, cherry-picked samples, cytotoxicity control, dose response (AID 504726).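 Further: potency for cytotoxicity as loss of luminescence signal.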 The note with it: Homo sapiens.
The target of a further experiment is Beta-galactosidase (Escherichia coli, UniProt Q8VNN2). The experiment can be described thus: detection-enzyme interference by beta-gal modulators – biochemical, E. coli enzyme, set 3, artefact control for CCR6 antagonist project, dose response (AID 504712).

The source made the active and inactive calls.

Chain of Beta-galactosidase (Q8VNN2 whole entry): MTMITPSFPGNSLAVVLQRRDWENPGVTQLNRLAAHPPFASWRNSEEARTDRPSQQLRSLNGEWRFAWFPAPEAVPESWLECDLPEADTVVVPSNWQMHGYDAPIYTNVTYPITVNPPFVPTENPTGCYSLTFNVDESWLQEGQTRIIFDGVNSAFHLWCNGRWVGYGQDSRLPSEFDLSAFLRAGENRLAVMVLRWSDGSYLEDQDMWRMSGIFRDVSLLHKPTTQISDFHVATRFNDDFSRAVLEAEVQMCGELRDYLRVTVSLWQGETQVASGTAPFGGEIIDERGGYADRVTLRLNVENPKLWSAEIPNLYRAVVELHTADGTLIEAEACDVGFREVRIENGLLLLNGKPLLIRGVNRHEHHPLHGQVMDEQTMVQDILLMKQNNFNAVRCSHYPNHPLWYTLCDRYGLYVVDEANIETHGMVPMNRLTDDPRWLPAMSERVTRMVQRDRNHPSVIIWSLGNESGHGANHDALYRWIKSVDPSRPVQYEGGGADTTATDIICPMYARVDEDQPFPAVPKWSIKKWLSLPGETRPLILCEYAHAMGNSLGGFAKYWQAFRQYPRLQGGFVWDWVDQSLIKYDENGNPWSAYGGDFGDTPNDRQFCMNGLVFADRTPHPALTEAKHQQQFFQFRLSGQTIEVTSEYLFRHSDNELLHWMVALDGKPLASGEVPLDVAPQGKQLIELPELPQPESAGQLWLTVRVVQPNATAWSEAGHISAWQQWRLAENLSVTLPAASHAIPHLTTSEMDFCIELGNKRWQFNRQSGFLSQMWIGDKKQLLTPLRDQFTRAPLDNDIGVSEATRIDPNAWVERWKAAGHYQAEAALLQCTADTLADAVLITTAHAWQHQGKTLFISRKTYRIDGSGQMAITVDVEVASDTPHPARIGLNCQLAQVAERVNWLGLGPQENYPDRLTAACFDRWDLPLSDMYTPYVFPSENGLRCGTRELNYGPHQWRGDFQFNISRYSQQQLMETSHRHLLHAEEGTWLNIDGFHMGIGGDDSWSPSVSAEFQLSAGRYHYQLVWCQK
Chain of Leukocyte tyrosine kinase receptor (P29376 whole entry): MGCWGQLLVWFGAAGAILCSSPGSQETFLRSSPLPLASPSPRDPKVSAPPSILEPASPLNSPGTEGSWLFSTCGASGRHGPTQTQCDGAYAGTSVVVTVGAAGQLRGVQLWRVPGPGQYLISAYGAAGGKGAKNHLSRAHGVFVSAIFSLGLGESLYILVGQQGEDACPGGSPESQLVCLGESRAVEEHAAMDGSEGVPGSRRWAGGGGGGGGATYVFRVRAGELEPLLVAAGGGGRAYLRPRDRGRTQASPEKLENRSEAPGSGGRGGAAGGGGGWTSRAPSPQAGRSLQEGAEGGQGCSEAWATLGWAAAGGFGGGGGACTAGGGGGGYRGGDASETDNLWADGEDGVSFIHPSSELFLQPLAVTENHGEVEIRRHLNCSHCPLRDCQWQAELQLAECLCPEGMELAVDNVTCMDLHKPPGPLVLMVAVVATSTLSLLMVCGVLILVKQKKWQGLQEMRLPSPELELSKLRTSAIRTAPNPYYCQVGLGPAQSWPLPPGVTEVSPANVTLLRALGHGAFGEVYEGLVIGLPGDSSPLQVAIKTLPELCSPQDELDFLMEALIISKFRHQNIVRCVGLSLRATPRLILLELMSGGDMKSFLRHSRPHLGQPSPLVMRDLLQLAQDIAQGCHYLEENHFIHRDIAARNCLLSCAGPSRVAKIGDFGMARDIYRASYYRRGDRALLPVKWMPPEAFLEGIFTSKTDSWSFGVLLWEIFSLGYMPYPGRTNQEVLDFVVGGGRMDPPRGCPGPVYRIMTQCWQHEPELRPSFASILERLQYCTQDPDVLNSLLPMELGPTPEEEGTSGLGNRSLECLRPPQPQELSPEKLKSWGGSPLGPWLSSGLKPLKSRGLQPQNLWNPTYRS
Chain of Cyclin-dependent kinase 9 (P50750 whole entry): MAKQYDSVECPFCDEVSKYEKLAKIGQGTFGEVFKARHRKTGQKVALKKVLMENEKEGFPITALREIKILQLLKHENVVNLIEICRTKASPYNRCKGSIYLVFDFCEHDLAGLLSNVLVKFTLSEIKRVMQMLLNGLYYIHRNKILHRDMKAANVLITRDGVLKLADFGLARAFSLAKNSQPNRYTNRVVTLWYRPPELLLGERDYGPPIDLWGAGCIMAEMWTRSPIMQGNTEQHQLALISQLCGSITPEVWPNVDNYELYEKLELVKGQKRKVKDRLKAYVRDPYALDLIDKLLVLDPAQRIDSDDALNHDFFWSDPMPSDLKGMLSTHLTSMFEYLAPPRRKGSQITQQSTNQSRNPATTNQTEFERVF
Chain of Activin receptor type-1 (Q04771 whole entry): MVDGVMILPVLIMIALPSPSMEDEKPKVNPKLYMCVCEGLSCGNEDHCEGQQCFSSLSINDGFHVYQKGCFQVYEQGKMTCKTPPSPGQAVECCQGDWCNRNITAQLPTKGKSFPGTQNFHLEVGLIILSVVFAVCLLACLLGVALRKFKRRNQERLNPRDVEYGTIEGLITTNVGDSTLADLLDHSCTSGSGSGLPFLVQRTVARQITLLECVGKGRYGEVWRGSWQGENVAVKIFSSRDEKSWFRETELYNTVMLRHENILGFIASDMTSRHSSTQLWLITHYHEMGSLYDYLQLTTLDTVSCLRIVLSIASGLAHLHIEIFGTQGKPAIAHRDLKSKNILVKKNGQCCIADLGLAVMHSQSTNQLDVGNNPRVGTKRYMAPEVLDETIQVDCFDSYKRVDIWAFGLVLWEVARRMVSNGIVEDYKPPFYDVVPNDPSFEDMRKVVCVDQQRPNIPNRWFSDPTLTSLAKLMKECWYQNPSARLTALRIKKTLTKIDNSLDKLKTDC
Chain of Vascular endothelial growth factor receptor 1 (P17948 whole entry): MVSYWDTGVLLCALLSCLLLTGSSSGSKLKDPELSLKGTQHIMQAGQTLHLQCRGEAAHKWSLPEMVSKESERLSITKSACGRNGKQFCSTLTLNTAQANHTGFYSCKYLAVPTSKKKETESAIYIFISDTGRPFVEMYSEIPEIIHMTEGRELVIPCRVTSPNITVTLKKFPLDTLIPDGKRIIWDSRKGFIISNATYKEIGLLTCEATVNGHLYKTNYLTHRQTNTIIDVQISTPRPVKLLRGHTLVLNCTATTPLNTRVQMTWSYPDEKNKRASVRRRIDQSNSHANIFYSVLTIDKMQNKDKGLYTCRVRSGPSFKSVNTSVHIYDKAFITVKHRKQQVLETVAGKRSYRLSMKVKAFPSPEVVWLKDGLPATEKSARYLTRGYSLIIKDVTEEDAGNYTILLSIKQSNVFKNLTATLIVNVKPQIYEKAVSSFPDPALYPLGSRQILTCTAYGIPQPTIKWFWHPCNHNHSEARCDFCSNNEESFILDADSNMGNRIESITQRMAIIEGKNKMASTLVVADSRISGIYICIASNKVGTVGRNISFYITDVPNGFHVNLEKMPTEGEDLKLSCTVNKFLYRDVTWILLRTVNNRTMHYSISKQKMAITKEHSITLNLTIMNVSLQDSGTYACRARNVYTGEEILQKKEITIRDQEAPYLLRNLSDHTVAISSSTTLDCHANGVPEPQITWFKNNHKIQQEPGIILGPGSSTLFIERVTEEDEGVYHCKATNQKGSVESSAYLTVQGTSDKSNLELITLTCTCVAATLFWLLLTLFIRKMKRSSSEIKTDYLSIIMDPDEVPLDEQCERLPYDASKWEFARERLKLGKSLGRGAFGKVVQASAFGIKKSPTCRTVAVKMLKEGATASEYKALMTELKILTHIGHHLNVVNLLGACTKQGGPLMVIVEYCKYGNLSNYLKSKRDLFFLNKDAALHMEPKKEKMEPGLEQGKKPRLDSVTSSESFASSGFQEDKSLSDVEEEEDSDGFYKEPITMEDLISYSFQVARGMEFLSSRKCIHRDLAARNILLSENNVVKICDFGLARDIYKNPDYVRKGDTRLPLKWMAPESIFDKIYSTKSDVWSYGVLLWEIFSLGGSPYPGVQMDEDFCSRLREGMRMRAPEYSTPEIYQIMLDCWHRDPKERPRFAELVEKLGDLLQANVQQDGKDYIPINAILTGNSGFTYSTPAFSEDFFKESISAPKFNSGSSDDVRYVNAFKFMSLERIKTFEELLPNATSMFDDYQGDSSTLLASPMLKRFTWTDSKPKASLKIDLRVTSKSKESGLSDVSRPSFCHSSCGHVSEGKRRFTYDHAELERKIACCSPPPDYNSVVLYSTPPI
Chain of Dual specificity protein kinase CLK4 (Q9HAZ1 whole entry): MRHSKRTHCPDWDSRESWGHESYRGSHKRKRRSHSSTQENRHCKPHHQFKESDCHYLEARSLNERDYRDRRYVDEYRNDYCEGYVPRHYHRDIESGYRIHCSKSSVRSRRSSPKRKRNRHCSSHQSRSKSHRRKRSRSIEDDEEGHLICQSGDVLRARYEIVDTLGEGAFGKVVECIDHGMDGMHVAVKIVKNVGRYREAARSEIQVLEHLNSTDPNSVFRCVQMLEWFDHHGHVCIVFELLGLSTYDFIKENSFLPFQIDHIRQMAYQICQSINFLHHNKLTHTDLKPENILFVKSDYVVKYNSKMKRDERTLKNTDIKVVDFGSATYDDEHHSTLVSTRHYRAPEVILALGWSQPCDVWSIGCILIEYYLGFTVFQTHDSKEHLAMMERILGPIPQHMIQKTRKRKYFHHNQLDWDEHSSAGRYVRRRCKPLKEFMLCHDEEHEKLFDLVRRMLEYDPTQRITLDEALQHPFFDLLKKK
Chain of Aurora kinase B (Q96GD4 whole entry): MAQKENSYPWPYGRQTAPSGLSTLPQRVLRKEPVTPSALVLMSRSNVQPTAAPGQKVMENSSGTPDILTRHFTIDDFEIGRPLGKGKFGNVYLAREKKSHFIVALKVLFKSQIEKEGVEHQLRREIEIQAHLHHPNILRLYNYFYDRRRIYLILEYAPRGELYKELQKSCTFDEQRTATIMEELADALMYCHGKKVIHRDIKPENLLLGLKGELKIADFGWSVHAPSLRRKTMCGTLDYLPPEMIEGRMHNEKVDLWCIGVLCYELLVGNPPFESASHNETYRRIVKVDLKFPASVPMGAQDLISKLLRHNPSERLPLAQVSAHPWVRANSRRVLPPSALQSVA

Turning to `O=C(NNc1cc(N2CCCC2)nc(N2CCCC2)n1)c1ccc([N+](=O)[O-])cc1`, the IC50 (as a rule, the midpoint of a concentration-inhibition curve) is 11900 nM (active) in experiment [1]; 3370 nM (active) in experiment [2]; 1820 nM (active) at SUMO-activating enzyme; 2120 nM (active) in [3]; 16500 nM (active) at Caspase-3.
Consider `O=C(Cc1cccs1)Nc1nc2ccccc2s1`, for which the Ki – broadly, a measure of affinity in units of concentration, obtained from inhibition or displacement – is 2000 nM (active) in [4]; 316 nM (active) in experiment [5]; 398 nM (active) in experiment [6]; 1000 nM (active) in [7]; 3160 nM (active) at Activin receptor type-1; 3160 nM (active) in experiment [8]. Further, the Ki was 501 nM (active) in experiment [9]; > 5010 nM (inactive) in experiment [10]; 158 nM (active) at LIM domain kinase 1; > 2510 nM (inactive) in experiment [11]; 316 nM (active) in experiment [12]; 251 nM (active) in experiment [13]. Besides, the figures for the Ki (in experiment [14]; at Aurora kinase B) were 3160 nM (active) and 1000 nM (active), respectively.
As for `O=S(=O)(O)c1cccc2c(N=Nc3ccc(O)c4ncccc34)cccc12`, the AC50 (in general, the concentration giving half of the maximal activity seen) in the experiment on HeLa is 206000 nM (active). The IC50 on Beta-galactosidase is 46300 nM (inactive).
